# Assay results from patent US6420352B1, “Hair loss prevention” (priority 2000, dated 2002).
# Where two headings read alike, the source gives them in different places.
# Legend:
# [1] = cited from earlier work
# [2] = system: hair loss; test: Topical use for hair loss prevention, effectiveness in patients; type: in vivo, human; conditions: same amount of minoxidil
# From the text: […]. […] […]. After about thirty months of use, about half of the new hair growth falls out. Thus, while the user has somewhat more hair than originally, the user has less hair than […].
# Minoxidil without a penetration enhancer (as available in ROGAINE™ topical minoxidil U.S.P.) produces a different kind of hair than does minoxidil used with a penetration enhancer.
# Further, it is known in the art that minoxidil users experience a sudden drop in hair thickness after about thirty months of usage. I thus have sought the time at which my compounds have a sudden drop in effectiveness. […] That this function is abnormal is confirmed by its drop in effectiveness after thirty months; such a drop in efficacy indicates a “tolerance” acquired against the intervention, rather than the maintenance of a permanent, healthy state.
# Using the specific formulations disclosed here, I have observed decreases in hair loss, and a consequent statistically significant increase in the amount of healthy mature hair, after 4.0-4.5 months on the frontal scalp. On the crown and back of the head, by contrast, I have observed statistically significant results after 4.5-5.0 months. The frontal scalp may react faster because it enjoys greater vascularization and blood flow than the other parts of the scalp.
# I have found several surprising things about testosterone blockers. […]
# [3] = system: scalp hair follicles; conditions: in vivo; cited from earlier work
# [4] = system: age related hair loss; conditions: stump-tail macaque monkeys; cited from earlier work
smiles,measurement,setting,value
"CCC(CCCCC1CCC2CC(=O)CC12)OC (stereo not shown) [Cioteronel, hexahydro-4-(5-methoxyheptyl)-2(1H)-pentalenone]","solubility, in words",[1]; in lipid and relatively non-polar solvents,soluble
"Nc1cc(N2CCCCC2)nc(N)[n+]1[O-] [minoxidil, 6-(1-piperidinyl)-2,4-pyrimidinediamaine 3-oxide]",share of patients on whom the preparation is effective,[2],8%
CC(C)(C)NC(=O)[C@H]1CC[C@H]2[C@@H]3CC[C@H]4NC(=O)C=C[C@]4(C)[C@H]3CC[C@]12C [finasteride],effect on scalp hair follicles / balding process,[3],"miniaturizes scalp hair follicles, reversing the balding process"
"CN(C)C(=O)C1CCC2C3CCC4N(C)C(=O)CCC4(C)C3CCC12C (stereo not drawn) [17b-N,N,- dimethylcarbamoyl-4-methyl-4-aza-5α-androstan-3-one]",age related hair loss versus untreated monkeys,[4],significantly less age related hair loss
"CC(=O)[C@H]1CC[C@H]2[C@@H]3CCC4=CC(=O)CC[C@]4(C)[C@H]3CC[C@]12C [Progesterone, pregn-4-ene-3, 20-dione]","solubility, in words","[1]; in alcohol, acetone, dioxane, and concentrated sulfuric acid",soluble
same,"solubility, in words",[1]; in vegetable oils,sparingly soluble
same,"solubility, in words",[1]; in water,insoluble
